From US9718804B2, “GSK-3 inhibitors” (BRISTOL-MYERS SQUIBB COMPANY, priority 2013, dated 2017)
Read-outs that look alike come from different tables or passages of the source.

What was measured:
pTau = pTau assay (no method described); type: cell-based
GSK3α = GSK3α (Homo sapiens, UniProt P49840); test: GSK3α kinase assay (Caliper LabChip, fluoresceinated peptide substrate); type: biochemical
Summary of the method: (§1)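 Reactions run 20 hours at room temperature, stopped with EDTA. Phosphorylated and unphosphorylated fluoresceinated peptide separated electrophoretically on Caliper LabChip3000. Eleven compound concentrations tested; IC50 by non-linear regression.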

GSK3β = GSK3β (Homo sapiens, UniProt P49841); test: GSK3β kinase assay (Caliper LabChip, fluoresceinated peptide substrate); type: biochemical
GSK3β, sequence (P49841 whole entry, species assumed): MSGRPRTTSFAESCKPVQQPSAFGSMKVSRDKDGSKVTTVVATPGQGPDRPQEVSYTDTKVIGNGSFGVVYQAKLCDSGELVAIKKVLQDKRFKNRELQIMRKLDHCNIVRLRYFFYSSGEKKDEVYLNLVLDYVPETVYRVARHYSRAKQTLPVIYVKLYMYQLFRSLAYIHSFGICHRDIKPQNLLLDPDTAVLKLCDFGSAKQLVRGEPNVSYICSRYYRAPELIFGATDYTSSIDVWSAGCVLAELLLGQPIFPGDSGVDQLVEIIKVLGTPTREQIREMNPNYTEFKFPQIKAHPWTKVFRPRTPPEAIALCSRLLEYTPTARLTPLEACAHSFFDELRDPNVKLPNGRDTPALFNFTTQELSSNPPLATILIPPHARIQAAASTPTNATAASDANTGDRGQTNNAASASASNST
Summary of the method: as §1

[1] = first value of the cell, 250 pM enzyme, 20 uM ATP, 20 hours at room temperature, read-out: GSK3β/α (nM): GSK3β IC50

GSK3α, sequence (P49840 whole entry, species assumed): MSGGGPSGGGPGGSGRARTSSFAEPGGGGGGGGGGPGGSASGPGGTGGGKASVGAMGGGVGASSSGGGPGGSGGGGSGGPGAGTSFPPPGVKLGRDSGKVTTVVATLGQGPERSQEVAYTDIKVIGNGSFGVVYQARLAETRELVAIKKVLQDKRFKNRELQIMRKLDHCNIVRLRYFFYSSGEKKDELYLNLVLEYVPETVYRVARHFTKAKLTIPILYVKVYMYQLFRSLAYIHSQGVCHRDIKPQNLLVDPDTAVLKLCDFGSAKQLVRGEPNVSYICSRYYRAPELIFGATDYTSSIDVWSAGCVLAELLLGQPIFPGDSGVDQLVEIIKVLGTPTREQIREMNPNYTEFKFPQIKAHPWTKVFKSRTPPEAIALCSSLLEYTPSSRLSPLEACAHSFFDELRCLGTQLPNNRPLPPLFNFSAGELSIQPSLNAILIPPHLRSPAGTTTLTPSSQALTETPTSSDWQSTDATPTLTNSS

SMILES: COc1cc(C2(C)OCCO2)c(NC(=O)c2ccnc(Nc3ccc(C(F)(F)F)cn3)c2)cn1 [Example 91, N-(6-Methoxy-4-(2-methyl-1,3-dioxolan-2-yl)pyridin-3-yl)-2-((5-(trifluoromethyl)pyridin-2-yl)amino)isonicotinamide]
- IC50 (pTau): 1200 nM
- IC50 (GSK3α): 20 nM
- IC50 (GSK3β; [1]): 3.9 nM

SMILES: O=C(Nc1cnccc1C1CCOCC1)c1ccnc(Nc2ccc(C(F)(F)F)cn2)c1 [Example 35, N-(4-(Tetrahydro-2H-pyran-4-yl)pyridin-3-yl)-2-((5-(trifluoromethyl)pyridin-2-yl)amino)isonicotinamide]
- IC50 (pTau): 760 nM
- IC50 (GSK3α; second value of the cell, 250 pM enzyme, 20 uM ATP, 20 hours at room temperature, read-out: GSK3β/α (nM): GSK3α IC50): 8.7 nM
- IC50 (GSK3β): 16 nM

SMILES: Cc1nc(Nc2cc(C(=O)Nc3cncc(-c4ccccc4F)c3)ccn2)ccc1C#N [Example 155, 2-((5-Cyano-6-methylpyridin-2-yl)amino)-N-(5-(2-fluorophenyl)pyridin-3-yl)isonicotinamide]
- IC50 (pTau): 570 nM
- IC50 (GSK3α): 1.2 nM
- IC50 (GSK3β; [1]): 3.6 nM

SMILES: CCc1cccc(Nc2cc(C(=O)Nc3cncc(-c4ccccc4F)c3)ccn2)n1 [Example 138, N-(5-(2-Fluorophenyl)pyridin-3-yl)-2-((6-ethylpyridin-2-yl)amino)isonicotinamide]
- IC50 (pTau): 4700 nM
- IC50 (GSK3α): 2.2 nM
- IC50 (GSK3β; [1]): 3.5 nM

SMILES: O=C(Nc1cncc(-c2ccccc2F)c1)c1ccnc(Nc2cccc(C(F)(F)F)n2)c1 [Example 134, N-(5-(2-Fluorophenyl)pyridin-3-yl)-2-((6-(trifluoromethyl)pyridin-2-yl)amino)isonicotinamide]
- IC50 (pTau): 470 nM
- IC50 (GSK3α): 1.5 nM
- IC50 (GSK3β; [1]): 3.9 nM

SMILES: Cc1cc(N2CCC(F)(F)CC2)c(NC(=O)c2ccnc(Nc3ccc(C(F)(F)F)cn3)c2)cn1 [Example 72, N-(6-Methyl-4-(4,4-difluoropiperidin-1-yl)pyridin-3-yl)-2-((5-(trifluoromethyl)pyridin-2-yl)amino)isonicotinamide]
- IC50 (pTau): 120 nM
- IC50 (GSK3α): 0.76 nM
- IC50 (GSK3β; [1]): 3.5 nM

SMILES: O=C(Nc1cnccc1C1=CCCCO1)c1ccnc(Nc2ccc(C(F)(F)F)cn2)c1 [Example 39, N-(4-(3,4-Dihydro-2H-pyran-6-yl)pyridin-3-yl)-2-((5-(trifluoromethyl)pyridin-2-yl)amino)isonicotinamide]
- IC50 (pTau): 140 nM
- IC50 (GSK3α): 0.93 nM
- IC50 (GSK3β; [1]): 1.2 nM

SMILES: O=C(Nc1cnccc1C1OCCO1)c1ccnc(Nc2ccc(C(F)(F)F)cn2)c1 [Example 40, N-(4-(1,3-Dioxolan-2-yl)pyridin-3-yl)-2-((5-(trifluoromethyl)pyridin-2-yl)amino)isonicotinamide]
- IC50 (pTau): 3300 nM
- IC50 (GSK3α): 46 nM
- IC50 (GSK3β; [1]): 23 nM

SMILES: N#Cc1cnn(-c2cncc(NC(=O)c3ccnc(Nc4cccc(C(F)(F)F)n4)c3)c2)c1 [Example 122, N-(5-(4-Cyano-1H-pyrazol-1-yl)pyridin-3-yl)-2-((6-(trifluoromethyl)pyridin-2-yl)amino)isonicotinamide]
- IC50 (pTau): 2000 nM
- IC50 (GSK3α): 2.2 nM
- IC50 (GSK3β; [1]): 6.9 nM

SMILES: N#Cc1ccc(Nc2cc(C(=O)Nc3cnccc3-c3ccccc3)ccn2)nc1 [Example 10, 2-((5-Cyanopyridin-2-yl)amino)-N-(4-phenylpyridin-3-yl)isonicotinamide]
- IC50 (pTau): 27 nM
- IC50 (GSK3α): 0.58 nM
- IC50 (GSK3β; [1]): 0.98 nM

SMILES: O=C(Nc1cncc(-c2ccccc2)c1)c1ccnc(Nc2cccc(C(F)(F)F)n2)c1 [Example 144, N-(5-Phenylpyridin-3-yl)-2-((6-(trifluoromethyl)pyridin-2-yl)amino)isonicotinamide]
- IC50 (pTau): 910 nM
- IC50 (GSK3α): 39 nM
- IC50 (GSK3β; [1]): 10 nM

SMILES: N#Cc1ccc(Nc2cc(C(=O)Nc3cncc(-c4ccccc4F)c3)ccn2)nc1 [Example 135, 2-((5-Cyanopyridin-2-yl)amino)-N-(5-(2-fluorophenyl)pyridin-3-yl)isonicotinamide]
- IC50 (pTau): 670 nM
- IC50 (GSK3α): 1.7 nM
- IC50 (GSK3β; [1]): 3 nM

SMILES: NS(=O)(=O)c1ccc(Nc2cc(C(=O)Nc3cncc(-c4ccccc4F)c3)ccn2)nc1 [Example 156, N-(5-(2-Fluorophenyl)pyridin-3-yl)-2-((5-sulfamoylpyridin-2-yl)amino)isonicotinamide]
- IC50 (pTau): 5600 nM
- IC50 (GSK3α): 1.6 nM
- IC50 (GSK3β; [1]): 3 nM

SMILES: COc1ccc(-c2ccncc2NC(=O)c2ccnc(Nc3ccc(C(F)(F)F)cn3)c2)c(F)c1 [Example 55, N-(4-(2-Fluoro-4-methoxy-phenyl)pyridin-3-yl)-2-((5-(trifluoromethyl)pyridin-2-yl)amino)isonicotinamide]
- IC50 (pTau): 86 nM
- IC50 (GSK3α): 0.89 nM
- IC50 (GSK3β; [1]): 3.2 nM

SMILES: CCCSc1ccncc1NC(=O)c1ccnc(Nc2ccc(C(F)(F)F)cn2)c1 [Example 170, N-(4-(Propylthio)pyridin-3-yl)-2-((5-(trifluoromethyl)pyridin-2-yl)amino)isonicotinamide]
- IC50 (pTau): 49 nM
- IC50 (GSK3α): 0.21 nM
- IC50 (GSK3β; [1]): 0.75 nM

SMILES: N#Cc1ccc(Nc2cc(C(=O)Nc3cnccc3-c3ccc(F)cc3)ccn2)nc1 [Example 56, 2-((5-Cyanopyridin-2-yl)amino)-N-(4-(4-fluorophenyl)pyridin-3-yl)isonicotinamide]
- IC50 (pTau): 36 nM
- IC50 (GSK3α): 0.98 nM
- IC50 (GSK3β; [1]): 2.4 nM

SMILES: CC1(COc2ccncc2NC(=O)c2ccnc(Nc3ccc(C(F)(F)F)cn3)c2)CC1 [Example 44, N-(4-((1-Methylcyclopropyl)methoxy)pyridin-3-yl)-2-((5-(trifluoromethyl)pyridin-2-yl)amino)isonicotinamide]
- IC50 (pTau): 52 nM
- IC50 (GSK3α): 0.33 nM
- IC50 (GSK3β; [1]): 1.4 nM

SMILES: O=C(Nc1cnccc1-c1ccccc1)c1ccnc(Nc2ccc(Br)cn2)c1 [Example 63, 2-((5-Bromopyridin-2-yl)amino)-N-(4-phenylpyridin-3-yl)isonicotinamide]
- IC50 (pTau): 150 nM
- IC50 (GSK3α): 3.4 nM
- IC50 (GSK3β; [1]): 9.3 nM

SMILES: CC1CC1COc1cncc(NC(=O)c2ccnc(Nc3cccc(C(F)(F)F)n3)c2)c1 (stereo not drawn) [Example 126, N-(5-((2-Methylcyclopropyl)methoxy)pyridin-3-yl)-2-((6-(trifluoromethyl)pyridin-2-yl)amino)isonicotinamide]
- IC50 (pTau): 3200 nM
- IC50 (GSK3α): 4.8 nM
- IC50 (GSK3β; [1]): 9.7 nM

SMILES: O=C(Nc1cnccc1-c1ccccc1)c1ccnc(Nc2ccccn2)c1 [Example 1, N-(4-Phenylpyridin-3-yl)-2-(pyridin-2-ylamino)isonicotinamide]
- IC50 (pTau): 213 nM
- IC50 (GSK3α): 2.6 nM
- IC50 (GSK3β; [1]): 3.4 nM

SMILES: N#Cc1ccc(Nc2cc(C(=O)Nc3cnccc3N3CCCCC3)ccn2)nc1 [Example 27, 2-((5-Cyanopyridin-2-yl)amino)-N-(4-(piperidin-1-yl)pyridin-3-yl)isonicotinamide]
- IC50 (pTau): 5.2 nM
- IC50 (GSK3α): 0.18 nM
- IC50 (GSK3β; [1]): 0.42 nM

SMILES: Cc1ccc(Nc2cc(C(=O)Nc3cncc(-c4ccccc4F)c3)ccn2)nc1 [Example 133, N-(5-(2-Fluorophenyl)pyridin-3-yl)-2-((5-methylpyridin-2-yl)amino)isonicotinamide]
- IC50 (pTau): 1400 nM
- IC50 (GSK3α): 3.4 nM
- IC50 (GSK3β; [1]): 7.3 nM

SMILES: CC(C)C(O)(c1cc(Cl)ncc1NC(=O)c1ccnc(Nc2ccc(C(F)(F)F)cn2)c1)C1CC1 (stereo not drawn) [Example 102, N-(6-Chloro-4-(1-cyclopropyl-1-hydroxy-2-methylpropyl)pyridin-3-yl)-2-((5-(trifluoromethyl)pyridin-2-yl)amino)isonicotinamide]
- IC50 (pTau): 1200 nM
- IC50 (GSK3α): 30 nM
- IC50 (GSK3β; [1]): 43 nM
